Among the test systems are PC-3; T47D; BT-549; Hs-578T; MDA-MB-435; LXFL 529; RXF 631; DU-145; 786-0.
Common to all, as to assay: inhibition of tumour cell growth, NCI panel, 48 h

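Assay format: 96-well plates, 48-hour exposure. GI50 marks 50% less growth.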 Active and inactive are the calls of the source. Cut-off read from the data, not from the text of the source: active = GI50 up to about 1.1 µM and inactive = higher.

Here are results for ten molecules from ChEMBL document CHEMBL1201862, “PubChem BioAssay data set” (2004).

On to `CC1CC[P+](c2ccccc2)(c2ccccc2)c2c1ccc1ccccc21` (stereo unspecified), for which the GI50 was 0.948 µM (active) in the assay on PC-3; 0.883 µM (active) in the assay with T47D; 0.764 µM (active) with BT-549; 1.46 µM (inactive) with Hs-578T; 1.52 µM (inactive) in the assay on MDA-MB-435; 0.83 µM (active) with LXFL 529.

On to `Cc1ccc(NC(=O)OCC(COc2ccc(Cl)cc2)OC(=O)Nc2ccc(C)cc2)cc1` (stereo unspecified), for which the GI50 with LXFL 529 is 23.4 µM (inactive); with RXF 631 it was 11.5 µM (inactive).

For `CCCCCCCCCCCCCC(=O)OC1C(O)C(CO)OC(OC)C1NC(=O)N(CCCl)N=O` (stereo unspecified), the GI50 in the assay on LXFL 529 was > 100 µM (inactive).

With `Cc1cc2c(cc1C)[n+]([O-])c(C#N)c(Cl)[n+]2[O-]`, the GI50 in the assay with PC-3 is 13.2 µM (inactive); in the assay with BT-549 it was 15.6 µM (inactive); in the assay on Hs-578T it was 15.9 µM (inactive); with MDA-MB-435 it was 21 µM (inactive); in the assay on DU-145 it was 14.9 µM (inactive).

For `CCCCNC(=O)N/C=C1\C(=O)Oc2ccccc2C1=O`, in the assay with LXFL 529, the GI50 was 47.8 µM (inactive).

On to `c1cncc(O[Si](Oc2cccnc2)(Oc2cccnc2)Oc2cccnc2)c1`, for which the GI50 in the assay with RXF 631 was > 100 µM (inactive).

As for `C[C@@H]1CC[C@H]2[C@H]1[C@H]1[C@@H](CC[C@]2(C)N=C=S)C1(C)C`, the GI50 with PC-3 was 26.7 µM (inactive); with T47D it was 45.5 µM (inactive); in the assay on BT-549, 18.7 µM (inactive); in the assay with Hs-578T, 48.1 µM (inactive); in the assay with MDA-MB-435, 24.8 µM (inactive); in the assay with DU-145, 23.4 µM (inactive).

On to `N#Cc1ccc(C2Oc3ccc(Cl)cc3C=C2[N+](=O)[O-])cc1` (stereo unspecified), for which the GI50 in the assay on PC-3 was 1.38 µM (inactive); in the assay on T47D, 0.34 µM (active); in the assay on BT-549 it was 0.581 µM (active); in the assay on Hs-578T it was 6.32 µM (inactive); with MDA-MB-435, 1.73 µM (inactive); in the assay with DU-145, 2.34 µM (inactive).

`CCOC(=O)N1C=NC23C(c4ccccc4)C(c4ccccc4)C12C(=O)N(C)C(=O)N3C` (stereo unspecified): the GI50 in the assay on 786-0 and with LXFL 529 was > 100 µM (inactive) in each case.

For `SC1=Nc2ccccc2-c2nc(-c3ccccc3)cc(-c3ccc(Br)cc3)c2C1`, the GI50 in the assay with PC-3 is 6.44 µM (inactive); in the assay on T47D it was 1.48 µM (inactive); in the assay with BT-549 it was 5.53 µM (inactive); with Hs-578T, 0.891 µM (active); in the assay on MDA-MB-435, 6.73 µM (inactive); in the assay with DU-145, 3.48 µM (inactive).
